Where “and” joins values, the source holds several entries; their conditions need not be identical. Equal entries are not always repeated.
Legend:
[1] = test system: Dermatophagoides pteronyssinus; assay: Binary choice test of mites between tested felt and control felt in a Petri dish; type: in vivo; design: key to stat Test: Stat diff: statistically different; NS: not significant; conditions: for Mean (binary choice of dust mites, tested felt) / stat Test: control felt + 1 μL H2O
Method: Aim of the experiments: All experiments are tests of binary choice aiming to determine the preference of mites and the place where they prefer to stay (at least for 30 min).
Rearing: The species studied was Dermatophagoides pteronyssinus, a dust mite common in mattresses in Eurasia. Mites are reared in Petri dishes and fed with human skin flakes (skin and whiskers obtained by cleaning electric shavers). All mites were reared together under defined conditions (20° C. and 75% relative humidity). The experiments took place in a room kept at 20° C. and 40% relative humidity.
Materials and methods: A group of mites (20<n<40) was placed in the centre of a Petri dish (∅=5.5 cm) around which two semi-circles of felt were placed (see FIG. 1). The pieces of felts were 70 mg/cm^2, their thickness was 2 mm. One felt is the control (control felt); the other felt is the felt with the tested item, for instance the felt that is impregnated with a chemical compound that is tested.
Mites move spontaneously towards one of the two felts.
Observations and counting of mites was made under binocular microscope (magnification 10*). The set-up is illuminated with a cold lamp (KL 1500 LCD, Schott®), the lighting is symmetric and the light intensity was 50 Klux. The experimental conditions were controlled in the room (T° C.: 19-22° C. and RH 40%).
Aim of the experiments: In the experiments, the tested felt was impregnated with chemicals that may be chemical acarid attractants.
Different compounds were tested: Citral, limonene, α-pinene, eucalyptol, lavendulol, polysorbate 20. Dust mites were attracted to the dilute citral (10^−6) but the citral 10^−3 is repellent. The limonene (dil. 10^−5) and the α-pinene (dil. 10^−6) were attractive for mites.

[2] = Shelf life and storage of the aqueous solution, citral and limonene by GC; type: physicochemical
Method: Finding an appropriate storage material. Verifying the presence of volatile attractive molecules in fresh solutions (freshly produced, 1 day old) and stored solutions (8-12 months). Determining the quantity of those attractive molecules in said solutions, and thus allowing to follow said solutions' chemical profiles within time.
An aqueous solution of 3.5 ng/μL essential oil from Melissa officinalis, 3.6 ng/μL essential oil from Cymbopogon flexuosus citraliferum and 5 ng/μL polysorbate 20 was produced, bottled and stored.
Bottle material test: Two types of 100-ml bottles were tested. A plastic and an aluminum bottle were produced (20 bottles for each material). The bottles were stored 1 month, and then tested for the presence of citral.
Long term shelf life test: 38 bottled solutions (stored 8-12 months) and 11 bottled fresh solutions (stored 1 day) were tested to compare the presence and quantity of citral and limonene.
Quantitative measurements for citral and limonene were done by gas chromatography (GC). These are well known in the art. The essential oils were extracted from 25 ml of said bottled solution using 2 ml of n-hexane (LC-MS or HPLC grade). A sample of (1 μl) of the n-hexane extract was injected in the GC-MS equipped with a mass detector and using an OPTIMA-5MS capillary column (30 m, 0.25 mm I.D., […]). Programmed temperature elution was employed with an initial temperature of 40° C., then ramped to 280° C. at 8° C./min and held at 280° C. for 5 min. Helium was used as the carrier gas. Electron impact ionization was performed using an electron energy of 70 eV and a mass range of 40-800 m/z.

[3] = test system: Dermatophagoides pteronyssinus; assay: Trap test on infested mini-mattresses with sprayed felt, mites counted via Berlese funnel; type: in vivo; conditions: felt 100% polyester; 4 ml/200 cm^2; drying + exposure 0 h + 2 h; dilution 0.00001
Method: Rearing: The species studied was Dermatophagoides pteronyssinus, a dust mite common in mattresses in Eurasia. Mites are reared in Petri dishes and fed with human skin flakes (skin and whiskers obtained by cleaning electric […]). All mites were reared together under defined conditions (20° C. and 75% relative humidity). The experiments took place in a room kept at 20° C. and 40% relative humidity. Aim of the experiments: The aim was to test the trap in condition similar to the conditions that will be met by the user of the trap. Materials and methods: The mattresses were built at a smaller scale (15× reduction) than usual mattresses. These mini-mattresses are made in polyurethane and covered by a cover in cotton. […] The fabric was a felt of 20 mg/cm^2 and is a rectangle of 10 cm×20 cm. It was placed on the mini-mattress. Then the attractive solution was sprayed on the fabric with a spray bottle. The fabric was left in place on the mattress. During this time, the mites moved in the felt. It is very difficult to count directly the mites hidden in the mattress and in the fabric. Therefore, we used a Berlese funnel which is a device that is usually used to separate insects from litter. Here, we used it to separate the mites form their mattress or from the fabric. […] The jar was emptied into a Petri dish and we counted mites under binocular. […]

acarids = assay: Acarid migration tests of attraction enhancers alone and with limonene (description); type: in vivo; conditions: for acarid attracting effect when used alone: low doses
[4] = blue felt + 1 μL, dil 10^−6, control white felt + 1 μL H2O
[5] = felt + 1 μL of Citral-0 (dilution not given)
[6] = Aluminium bottle, stored 1 month

Molecule: CC(C)=CCCC(C)=CC=O [Citral, 3,7-dimethyl-2,6-octadienal]
- Mean (compound and color) [1, 4]: 0.84
- Test stat (compound and color) [1, 4]: diff stat
- migration of the mites toward the blue felt ([1]; blue felt in combination with citral): 84%
- effect on dust mites ([1]; dilution 10^−3): repellent
- effect on dust mites ([1]; dilution 10^−6): attracted
- Mean (binary choice of dust mites, tested felt) [1, 5]: 0.03
- stat Test [1, 5]: Stat diff
- Mean (binary choice of dust mites, tested felt) ([1]; felt + 1 μL, dil 10^−3): 0.23
- stat Test ([1]; felt + 1 μL, dil 10^−3): Stat diff
- Mean (binary choice of dust mites, tested felt) ([1]; felt + 1 μL, dilution 10^−6): 0.72
- stat Test ([1]; felt + 1 μL, dilution 10^−6): Stat diff
- concentration in stored solutions (mean ± St. Dev.) / detection ([2]; 38 solutions, 8-12 months after production): not detected
- presence in bottled solution (bottle material test) ([2]; plastic and aluminium bottles, stored 1 month): present in each sample analysed
- trapped living mites [3]: 17%

Molecule: CC(C)=CCCC(C)CC=O (centres unmarked) [Citronellal, 3,7-dimethyloct-6-en-1-al]
- acarid attracting effect when used alone (acarids): mild acarid attractant
- migrated population (acarids; tested with limonene for long contact times): ~1

Molecule: CC12CCC(CC1)C(C)(C)O2 [Eucalyptol, 1,3,3-Trimethyl-2-oxabicyclo [2.2.2.]octane]
- effect on dust mites ([1]; dilution not stated): no statistically significant effect
- Mean (binary choice of dust mites, tested felt) ([1]; felt + 1 μL, dilution 10^−6): 0.48 and 0.51
- stat Test ([1]; felt + 1 μL, dilution 10^−6): NS

Molecule: CC(C)=CCC/C(C)=C/C=O [Geranial]
- content in the bottled aqueous solution (bottle material test) [2, 6]: 12.56% ± 1.79
- content in the bottled aqueous solution (bottle material test) ([2]; Plastic bottle, stored 1 month): 13.03% ± 1.25

Molecule: C=C(C)[C@H](CO)CC=C(C)C [Lavendulol]
- effect on dust mites ([1]; dilution not stated): no statistically significant effect
- Mean (binary choice of dust mites, tested felt) ([1]; felt + 1 μL, dilution 10^−6): 0.46 and 0.51
- stat Test ([1]; felt + 1 μL, dilution 10^−6): NS

Molecule: C=C(C)C1CC=C(C)CC1 (centres unmarked) [Limonene, 1-methyl-4-(1-methylethenyl)-cyclohexene]
- effect on dust mites ([1]; dil. 10^−5): attractive
- Mean (binary choice of dust mites, tested felt) ([1]; felt + 1 μL, dil. 10^−5): 0.61
- stat Test ([1]; felt + 1 μL, dil. 10^−5): Stat diff
- Mean (binary choice of dust mites, tested felt) ([1]; felt + 1 μL, dilution 10^−6): 0.48
- stat Test ([1]; felt + 1 μL, dilution 10^−6): NS

Molecule: C=CC(C)(O)CCC=C(C)C (centres unmarked) [Linalool, 3,7-dimethyl-1,6-octadien-3-ol]
- acarid attracting effect when used alone (acarids): did not appear to have a significant attracting effect
- effect in combination with limonene (acarids; combined with limonene and other attractants): significant increase in the migrated population

Molecule: CC(C)=CCC/C(C)=C\C=O [Neral]
- content in the bottled aqueous solution (bottle material test) [2, 6]: 12.68% ± 0.18
- content in the bottled aqueous solution (bottle material test) ([2]; Plastic bottle, stored 1 month): 12.63% ± 0.59

Molecule: CC1=CC[C@H]2C[C@@H]1C2(C)C [α-pinene, (15,55)-2,6,6-trimethylbicyclo[3.1.1]hept-2-ene]
- effect on dust mites ([1]; dilution 10^−6): attractive
- Mean (binary choice of dust mites, tested felt) ([1]; felt + 1 μL, dil. 10^−5): 0.45
- stat Test ([1]; felt + 1 μL, dil. 10^−5): NS
- Mean (binary choice of dust mites, tested felt) ([1]; felt + 1 μL, dilution 10^−6): 0.58
- stat Test ([1]; felt + 1 μL, dilution 10^−6): Stat diff

Molecule: polyoxyethylene (20) sorbitan monolaurate [Polysorbate 20]
- effect on dust mites ([1]; dilution not stated): no statistically significant effect
- Mean (binary choice of dust mites, tested felt) ([1]; felt + 1 μL, dilution 10^−6): 0.50 and 0.53
- stat Test ([1]; felt + 1 μL, dilution 10^−6): NS
